System: DRG axons
Experiment: Axon degeneration assay: SARM1 inhibitor with DLK inhibitor, mouse DRG drop culture, manual axotomy
Type: cell-based
Details: 16 hours post-axotomy
Description: Mouse dorsal root ganglion neurons (DRGs) were dissected out of E12.5 CD1 mice (50 ganglia per embryo) and incubated with 0.5% Trypsin solution containing 0.02% EDTA (Gibco) at 37° C. for 15 min. The cells were then triturated by gentle pipetting and washed 3 times with DRG growth medium (Neurobasal medium (Gibco) containing 2% B27 (Invitrogen), 100 ng/ml 2.5S NGF (Harland Bioproducts), […] 5-fluoro-2′ deoxyuridine (Sigma), penicillin, and streptomycin). Cells were suspended in the DRG growth medium. DRG drop cultures were created by spotting 5000 cells/well into the center of each well of a 96-well tissue culture plate coated with poly-D-Lysine (0.1 mg/ml; Sigma) and laminin ([…]; Invitrogen). Cells were allowed to adhere to the plates in a humidified tissue culture incubator (5% CO2) for 15 min and then DRG growth medium was gently added ([…] well). DRG neurons were maintained in neurobasal medium supplemented with L-glutamine (Invitrogen), 2% (vol/vol) B27 (Invitrogen), 50 ng/mL NGF (Harlan Laboratories), and 1 μM 5-fluoro-2′deoxyuridine plus 1 μM uridine (Sigma) to induce death of mitotic cells. DRG neurons were then seeded on plates pre-coated with poly-D-lysine and laminin.
2 hours prior to axotomy, DRG cultures were treated with SARM1 inhibitors, in the continued presence of the DLK inhibitor. […] Isoquinoline SARM1 inhibitors tested included I-26 and I-86, while isothiazole SARM1 inhibitors tested included II-6 and II-32. The SARM1 inhibitors were tested using concentrations ranging from 0.1 to 30 μM.
A manual axotomy was performed at time 0 by transecting the axons of the DRG neurons with a blade. After the axotomy, DRG cultures remained exposed to the SARM1 inhibitor alone, DLK inhibitor alone, or the combination of SARM1 inhibitor and DLK inhibitor. At 16 hours, DRG cultures were fixed in a buffered solution containing 1% PFA and sucrose and stored at 4° C. prior to imaging. Bright-field images of DRG axons and cell bodies were collected using the 20× water immersion lens of a Phenix automated confocal microscope (PerkinElmer) and quantitation of axonal damage was performed using in-house developed scripts (Acapella, PerkinElmer). The effect of DLK inhibitor alone in protecting distal axons from fragmentation was determined at concentrations of 100 nM and 300 nM. The effect of combining the DLK inhibitor with varying concentrations of a SARM1 inhibitor was compared to the individual protective effects of either 100 nM or 300 nM of DLK inhibitor alone or an equivalent concentration of a SARM1 inhibitor alone.

[1] = SARM1 inhibitor alone, 1.1 μM, FIG. 1B/2B

SMILES: N#Cc1ccnc(Nc2cc(C3CCN(C4COC4)CC3)cc(N3CCC(F)(F)C3)n2)c1 [DLK inhibitor, 2-((6-(3,3-difluoropyrrolidin-1-yl)-4-(1-(oxetan-3-yl)piperidin-4-yl)pyridin-2-yl)amino)isonicotinonitrile, reference compound]
- axonal protection (degeneration index of DRG axons) (100 nM DLK inhibitor alone): no axonal protection
- axonal protection (degeneration index of DRG axons) (300 nM DLK inhibitor alone): modest but statistically significant level of axonal protection

SMILES: COc1cc(Br)c2ccncc2c1 [I-86]
- axonal protection (degeneration index of DRG axons) [1]: modest level of axonal protection
- axonal protection (degeneration index of DRG axons) (SARM1 inhibitor alone, 1.1 μM, FIG. 2A): a small, but statistically significant amount of axonal protection

SMILES: COCCn1sc(Nc2ccccc2C(F)(F)F)c(C#N)c1=O [II-32]
- axonal protection (degeneration index of DRG axons) (SARM1 inhibitor alone, 0.11, 0.33 or 1.1 μM, FIG. 4A): modest but not statistically significant axonal protection
- axonal protection (degeneration index of DRG axons) (SARM1 inhibitor alone, 0.11, 0.33 or 1.1 μM, FIG. 4B): only slight and not statistically significant protection

SMILES: Ic1cccc2cnccc12 [I-26]
- axonal protection (degeneration index of DRG axons) [1]: modest level of protection
- axonal protection (degeneration index of DRG axons) (SARM1 inhibitor alone, 1.1, 3.3, 10 or 30 μM (all tested concentrations), FIG. 1A): significant axonal protection over all tested concentrations

SMILES: N#Cc1c(O)nsc1Nc1ccccc1C(F)(F)F [II-6]
- axonal protection (degeneration index of DRG axons) (SARM1 inhibitor alone, 3.3 μM, FIG. 3B): modest level of protection
- axonal protection (degeneration index of DRG axons) (SARM1 inhibitor alone, 1.1 or 3.3 μM, FIG. 3A): modest, but statistically significant axonal protection
